Data as given in PubChem BioAssay AID256 (DTP/NCI, 2004).
Inconclusive results and toxic doses are left out. The calls were made as follows: active = survival T/C of 150% or more; inactive = T/C below 125% in these data.

Test system: CD2F1 mice, L1210 leukemia ip, survival T/C
Assay: NCI In Vivo Anticancer Drug Screen. Data for tumor model L1210 Leukemia (intraperitoneal) in CD2F1 (CDF1) mice
Details: higher = longer survival
Summary of the method: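 Vehicle-treated tumor-bearing mice served as controls (C) for compound-treated mice (T). Reported figure is T divided by C.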

[1] = endpoint: mean survival time, dose: 100.0 mg/kg/injection, schedule: Q01DX009 (ip), vehicle: saline with Tween-80
[2] = endpoint: mean survival time, dose: 200.0 mg/kg/injection, schedule: Q01DX009 (ip), vehicle: saline with Tween-80
[3] = endpoint: mean survival time, dose: 400.0 mg/kg/injection, schedule: Q01DX009 (ip), vehicle: saline with Tween-80

Measured: T/C

COc1c(C)c2c(c(O)c1CCNc1ccc(S(N)(=O)=O)cc1)C(=O)OC2
inactive: endpoint: mean survival time, dose: 100.0 mg/kg/injection, schedule: Q04DX002 (ip), vehicle: saline with Tween-80 100 % of control | endpoint: mean survival time, dose: 200.0 mg/kg/injection, schedule: Q04DX002 (ip), vehicle: saline with Tween-80 96 % of control | endpoint: mean survival time, dose: 400.0 mg/kg/injection, schedule: Q04DX002 (ip), vehicle: saline with Tween-80 100 % of control

COC(=O)C1C(O)C(C)C(O)OC1C(C)C(O)C(C)/C=C\C=C(/C)C(=O)Nc1c(C)c(OC(C)=O)c2c(c1O)C(=O)C(C)=C1OCOC(/C(C)=C/C(C)=O)=C12 (stereo unspecified)
inactive: endpoint: mean survival time, dose: 100.0 mg/kg/injection, schedule: Q01DX009 (ip), vehicle: saline 97 % of control | endpoint: mean survival time, dose: 200.0 mg/kg/injection, schedule: Q01DX009 (ip), vehicle: saline 101 % of control

CC(=O)NC(CC(C)C)C(=O)O.CC(=O)NC(CC(C)C)C(=O)O.[NH-]C1CCCCC1[NH-].[Pt+2] (stereo unspecified)
inactive: endpoint: median survival time, dose: 3.12 mg/kg/injection, schedule: Q04DX003 (ip), vehicle: saline 97 % of control | endpoint: median survival time, dose: 6.25 mg/kg/injection, schedule: Q04DX003 (ip), vehicle: saline 100 % of control | endpoint: median survival time, dose: 12.5 mg/kg/injection, schedule: Q04DX003 (ip), vehicle: saline 97 % of control | endpoint: median survival time, dose: 25.0 mg/kg/injection, schedule: Q04DX003 (ip), vehicle: saline 100 % of control | endpoint: median survival time, dose: 50.0 mg/kg/injection, schedule: Q04DX003 (ip), vehicle: saline 104 % of control | endpoint: median survival time, dose: 100.0 mg/kg/injection, schedule: Q04DX003 (ip), vehicle: saline 105 % of control | endpoint: median survival time, dose: 200.0 mg/kg/injection, schedule: Q04DX003 (ip), vehicle: saline 108 % of control

Cc1nc2c(nc1C)C(=O)C(N1CCOCC1)=CC2=O
inactive: endpoint: mean survival time, dose: 6.25 mg/kg/injection, schedule: Q04DX003 (ip), vehicle: saline 100 % of control | endpoint: mean survival time, dose: 12.5 mg/kg/injection, schedule: Q01DX001 (ip), vehicle: saline 87 % of control | endpoint: mean survival time, dose: 12.5 mg/kg/injection, schedule: Q04DX003 (ip), vehicle: saline 100 % of control | endpoint: mean survival time, dose: 25.0 mg/kg/injection, schedule: Q01DX001 (ip), vehicle: saline 107 % of control | endpoint: mean survival time, dose: 25.0 mg/kg/injection, schedule: Q04DX003 (ip), vehicle: saline 98 % of control | endpoint: mean survival time, dose: 35.0 mg/kg/injection, schedule: Q04DX003 (ip), vehicle: saline 88 % of control | endpoint: mean survival time, dose: 55.0 mg/kg/injection, schedule: Q04DX003 (ip), vehicle: saline 91 % of control | endpoint: mean survival time, dose: 80.0 mg/kg/injection, schedule: Q04DX003 (ip), vehicle: saline 86 % of control

CS(=O)(=O)c1ccncc1
inactive: endpoint: mean survival time, dose: 100.0 mg/kg/injection, schedule: Q04DX003 (ip), vehicle: saline sonified 95 % of control | endpoint: mean survival time, dose: 200.0 mg/kg/injection, schedule: Q04DX003 (ip), vehicle: saline sonified 98 % of control

Cc1ccc(Cl)cc1NS(=O)(=O)c1ccccc1
inactive: [1] 94 % of control | endpoint: mean survival time, dose: 100.0 mg/kg/injection, schedule: Q04DX003 (ip), vehicle: saline with Tween-80 100 % of control | [2] 96 % of control | endpoint: mean survival time, dose: 200.0 mg/kg/injection, schedule: Q04DX003 (ip), vehicle: saline with Tween-80 105 % of control | [3] 94 % of control | endpoint: mean survival time, dose: 400.0 mg/kg/injection, schedule: Q04DX003 (ip), vehicle: saline with Tween-80 105 % of control

CC(C)C(=O)OCCOc1ccccc1
inactive: [1] 100 % of control | [2] 100 % of control | [3] 98 % of control
